We go through two substances from patent US11759518B2, “Medicine for treating cancer by administering a toll-like receptor agonist and LAG-3 IgG fusion protein” (NEC CORPORATION, priority 2016, dated 2023).

Assay [1] concerns P815 tumor cells. As to the kind of experiment: Suppression of tumor growth by immunoadjuvant combination, P815 model. The class given is in vivo, mouse. The conditions noted are these: DBA/2 mice with P815 tumor, PIA CTL i.v. Day 7. From the text:
The following substances were used as adjuvants.
Poly I:C (TLR3 agonist) (Invivogen, SanDiego, USA)
RIBOXXOL (TLR3 agonist) (Riboxx, Radebeul, Germany)
MPL (TLR4 agonist) (Invivogen, SanDiego, USA)
Imiquimod (TLR7/8 agonist) (Invivogen, SanDiego, USA)
CpG (TLR9 agonist) (Invivogen, SanDiego, USA)
LAG-3Ig (Adipogen, SanDiego, USA)
P815 tumor cells were subcutaneously inoculated to DBA/2 mice in an amount of 5×10^5 cells per mouse to prepare cancer model mice. The day of inoculation was specified as Day 0. On Day 7, PIA CTL (2.5×10^5 cells per mouse) were intravenously injected. Day 8 and Day 15, an admixture of PIA peptide (50 μg per mouse) and an adjuvant in PBS was subcutaneously injected. Mice were divided into 9 groups each consisting of 4 or 5 mice and the following adjuvants were used respectively.
Group 1: PIA peptide alone (control)
(§1) Group 2: Poly I:C (50 μg/mouse)
Group 3: Poly I:C (50 μg/mouse)+LAG-3Ig (1 μg/mouse)
Group 4: No PIA peptide, Poly I:C (50 μg/mouse)+LAG-3Ig (1 μg/mouse) alone
Group 5: RIBOXXOL (100 μg/mouse) Group 6: RIBOXXOL (100 μg/mouse)+LAG-3Ig (1 μg/mouse)
Group 7: MPL (10 μg/mouse)+LAG-3Ig (1 μg/mouse) Group 8: Imiquimod (50 μg/mouse)+LAG-3Ig (1 μg/mouse)
Group 9: CpG (10 μg/mouse)+LAG-3Ig (1 μg/mouse)

For assay [2], the system named is B16-F10 melanoma cells. As to the kind of experiment: Tumor growth inhibitory effect of immuno-adjuvant combination in B16-F10 melanoma inoculation model mice. The class given is in vivo, mouse. The conditions noted are these: C57BL/6 mice with B16-F10 melanoma. How it is done:
To C57BL/6 mice, B16-F10 melanoma cells (1×10^5 cells per mouse) were subcutaneously inoculated to prepare cancer model mice. The day of inoculation was specified as Day 0. On Day 5 and Day 12, twice in total, an admixture of gp100 peptide (50 μg per mouse) and an adjuvant in PBS was subcutaneously injected. The following adjuvants were used in respective mice groups.
Group 1: IFA (50 μL/mouse)
as §1
Group 3: LAG-3Ig (1 μg/mouse)
Group 4: LAG-3Ig (1 μg/mouse)+Poly I:C (50 μg/mouse)

Assay [3] deals with P815 cells (DBA/2mouse-derived mouse mastocytoma). The assay can be described thus: Comparison of adjuvants in a cancer vaccine with PIA peptide, tumor size and survival. The class given is in vivo. The conditions noted are these: DBA/2 mice with P815 tumor, 5 mice per group; PIA CTL i.v. Day 8; adjuvant admixed with PIA peptide 50 μg per mouse s.c. Day 9 and Day 16. From the text: In accordance with the protocol shown in FIG. 1, the effects of adjuvants in cancer vaccines using a cancer-antigen derived peptide were compared.
As cancer model mice, DBA/2 mice, to which P815 cells (DBA/2mouse-derived mouse mastocytoma) were grafted, were put in use.
As a cancer-antigen derived peptide, a peptide (hereinafter referred to as “PIA peptide”) consisting of a partial sequence of PIA protein was used, which is a tumor antigen of P815 tumor and known to be restrictively presented by an MHC H-2Ld. The amino acid sequence of PIA peptide are represented by LPYLGWLVF (SEQ. ID No: 40).
As PIA CTL, a T cell expressing a T cell receptor and recognizing PIA peptide was used. […] Based on the positive ratio, the number of PIA-CTL cells was determined and administered.
As the adjuvants, the following substances were used.
P815 tumor cells were subcutaneously inoculated to DBA/2 mice in an amount of 5×10^5 cells per mouse. The day of inoculation was specified as Day 0. On Day 8, PIA CTL (2.5×10^5 cells per mouse) were intravenously injected. On Day 9 and Day 16, an admixture of PIA peptide (50 μg per mouse) and an adjuvant in PBS was subcutaneously injected. Mice were divided into 9 groups each consisting of 5 mice and the following adjuvants were used, respectively.
Group 2: IFA (50 μL/mouse)
Group 3: PT (1×10^8/mouse)
Group 4: Poly I:C (50 μg/mouse) […]

On to LPYLGWLVF [PIA peptide alone], for which the “mice died up to Day 40” value in assay [1] (s.c. injection Day 8 and Day 15) is reported as 5 out of 5.
For “Polyinosinic:polycytidylic acid [Poly I:C]”, the mice survived result in assay [1] (read against Day 40 of the preceding sentence, adjuvant admixed with PIA peptide (unless stated) s.c. Day 8 and Day 15) is “Four out of 5”. In addition, the “effect of extending survival time” value in assay [2] (Groups 2 and 3 compared to Group 1 (IFA), Group 4 compared to Groups 1, 2 and 3) is “a significant effect of extending survival time was not observed”. The “day on which five mice all died” value in assay [2] (adjuvant admixed with gp100 peptide 50 μg s.c. Day 5 and Day 12) was determined as 35 days. Moreover, in assay [3], the “number of mice survived until Day 70 without increasing tumor size” value is reported as 1.
